Data: patent US9115169B2, “Method of treating tumors” (Lytix Biopharma AS, priority 2000, dated 2015)
Values after ≈ are worked out from the molar mass of the structure shown. Like-named read-outs stand apart in the source and are kept apart here. Where a SMILES comes first, the peptide text is derived from it. [ ]: non-standard residue; d: D form. The star is where a group is joined. Trp(2-Pmc) = Cc1c(C)c(S(=O)(=O)c2[nH]c3ccccc3c2C[C@H](N)C(=O)O)c(C)c2c1OC(C)(C)CC2; Bip = N[C@@H](Cc1ccc(-c2ccccc2)cc1)C(=O)O; OBn = c1ccc(CO*)cc1

Legend:
[1] = system: Escherichia coli ATCC 25922
[2] = system: Staphylococcus aureus ATCC 25923

Structure (SMILES)	MIC E. coli ([1]; ATCC 25922)	MIC E. coli ([1]; Table 8, second column)	MIC S. aureus ([2]; ATCC 25923)	MIC S. aureus ([2]; Table 8, second column)	Minimum inhibitory concentration E. coli ([1]; ATCC 25922)	Minimum inhibitory concentration S. aureus ([2]; ATCC 25923)
C[C@H](N)C(=O)N[C@@H](C)C(=O)N[C@@H](Cc1ccc(-c2ccccc2)cc1)C(=O)N[C@@H](Cc1ccc(-c2ccccc2)cc1)C(=O)N[C@@H](CCCNC(=N)N)C(=O)N[C@@H](CCCNC(=N)N)C(N)=O [AABBRR-NH2] (H-AA[Bip][Bip]RR-NH2; N-terminus assumed)	20 to 35 µg/mL	21.8-38.1 μM/ml	5 µg/mL (≈ 5.45 µM)	5.4 μM/ml		
C[C@H](N)C(=O)N[C@@H](C)C(=O)N[C@@H](Cc1c[nH]c2ccccc12)C(=O)N[C@@H](Cc1ccc(-c2ccccc2)cc1)C(=O)N[C@@H](CCCNC(=N)N)C(=O)N[C@@H](CCCNC(=N)N)C(N)=O [AAWBRR-NH2] (H-AAW[Bip]RR-NH2; N-terminus assumed)	150 µg/mL (≈ 170 µM)	170.2 μM/ml	20 to 35 µg/mL	22.7-39.7 μM/ml		
Cc1c(C)c(S(=O)(=O)c2[nH]c3ccccc3c2C[C@H](NC(=O)[C@H](C)NC(=O)[C@H](C)N)C(=O)N[C@@H](CCCNC(=N)N)C(=O)N[C@@H](Cc2ccc(-c3ccccc3)cc2)C(=O)N[C@@H](CCCNC(=N)N)C(N)=O)c(C)c2c1OC(C)(C)CC2 [AAWRBR-NH2 Pmc+] (H-AA[Trp(2-Pmc)]R[Bip]R-NH2; N-terminus assumed)		13.1 μM/ml		2.2 μM/ml		
C[C@H](N)C(=O)N[C@@H](C)C(=O)N[C@@H](Cc1c[nH]c2ccccc12)C(=O)N[C@@H](CCCNC(=N)N)C(=O)N[C@@H](Cc1ccc(-c2ccccc2)cc1)C(=O)N[C@@H](CCCNC(=N)N)C(N)=O [AAWRBR-NH2] (H-AAWR[Bip]R-NH2; N-terminus assumed)	150 to 300 µg/mL		35 µg/mL (≈ 39.7 µM)	39.7 μM/ml		
C[C@H](N)C(=O)N[C@@H](C)C(=O)N[C@@H](Cc1c[nH]c2ccccc12)C(=O)N[C@@H](Cc1c[nH]c2ccccc12)C(=O)N[C@@H](CCCNC(=N)N)C(=O)N[C@@H](CCCNC(=N)N)C(N)=O [AAWWRR-NH2] (H-AAWWRR-NH2; N-terminus assumed)	>200 µg/mL	237.0 μM/ml	>200 µg/mL	237.0 μM/ml		
Cc1c(C)c(S(=O)(=O)c2[nH]c3ccccc3c2C[C@H](NC(=O)[C@H](C)N)C(=O)N[C@@H](CCCNC(=N)N)C(=O)N[C@@H](Cc2ccc(-c3ccccc3)cc2)C(=O)N[C@@H](CCCNC(=N)N)C(=O)N[C@@H](C)C(N)=O)c(C)c2c1OC(C)(C)CC2 [AWRBRA-NH2 Pmc+] (H-A[Trp(2-Pmc)]R[Bip]RA-NH2; N-terminus assumed)		8.7 μM/ml		2.2 μM/ml		
C[C@H](N)C(=O)N[C@@H](Cc1c[nH]c2ccccc12)C(=O)N[C@@H](CCCNC(=N)N)C(=O)N[C@@H](Cc1ccc(-c2ccccc2)cc1)C(=O)N[C@@H](CCCNC(=N)N)C(=O)N[C@@H](C)C(N)=O [AWRBRA-NH2] (H-AWR[Bip]RA-NH2; N-terminus assumed)	35 µg/mL (≈ 39.7 µM)	39.7 μM/ml	35 µg/mL (≈ 39.7 µM)	39.7 μM/ml		
C[C@H](NC(=O)[C@H](C)NC(=O)[C@H](Cc1ccc(-c2ccccc2)cc1)NC(=O)[C@@H](N)Cc1ccc(-c2ccccc2)cc1)C(=O)N[C@@H](CCCNC(=N)N)C(=O)N[C@@H](CCCNC(=N)N)C(N)=O [BBAARR-NH2] (H-[Bip][Bip]AARR-NH2; N-terminus assumed)	>150 µg/mL	163.4 μM/ml	5 µg/mL (≈ 5.45 µM)	5.4 μM/ml		
N=C(N)NCCC[C@H](NC(=O)[C@H](CCCNC(=N)N)NC(=O)[C@H](Cc1ccc(-c2ccccc2)cc1)NC(=O)[C@@H](N)Cc1ccc(-c2ccccc2)cc1)C(N)=O [BBRR-NH2] (H-[Bip][Bip]RR-NH2; N-terminus assumed)	50 µg/mL (≈ 64.4 µM)	64.4 μM/ml	5 µg/mL (≈ 6.44 µM)	6.4 μM/ml		
C[C@H](NC(=O)[C@H](C)NC(=O)[C@H](CCCNC(=N)N)NC(=O)[C@H](CCCNC(=N)N)NC(=O)[C@H](Cc1ccc(-c2ccccc2)cc1)NC(=O)[C@@H](N)Cc1ccc(-c2ccccc2)cc1)C(N)=O [BBRRAA-NH2] (H-[Bip][Bip]RRAA-NH2; N-terminus assumed)	75 µg/mL (≈ 81.7 µM)	81.7 μM/ml	5 µg/mL (≈ 5.45 µM)	5.4 μM/ml		
NCCCC[C@H](N)CN[C@@H](Cc1c[nH]c2ccccc12)C(=O)OCc1ccccc1 [Kψ(CH2NH)WOBzl]					>300 µg/mL	300 µg/mL (≈ 734 µM)
C[C@H](NC(=O)[C@H](C)NC(=O)[C@H](CCCNC(=N)N)NC(=O)[C@@H](N)CCCNC(=N)N)C(=O)N[C@@H](Cc1c[nH]c2ccccc12)C(=O)N[C@@H](Cc1ccc(-c2ccccc2)cc1)C(N)=O [RRAAWB-NH2] (H-RRAAW[Bip]-NH2; N-terminus assumed)	150 to 300 µg/mL		10 µg/mL (≈ 11.4 µM)	11.3 μM/ml		
C[C@H](NC(=O)[C@H](C)NC(=O)[C@H](CCCNC(=N)N)NC(=O)[C@@H](N)CCCNC(=N)N)C(=O)N[C@@H](Cc1c[nH]c2ccccc12)C(=O)N[C@@H](Cc1c[nH]c2ccccc12)C(N)=O [RRAAWW-NH2] (H-RRAAWW-NH2; N-terminus assumed)	>200 µg/mL	237.0 μM/ml	>200 µg/mL	237.0 μM/ml		
C[C@H](NC(=O)[C@H](C)NC(=O)[C@H](Cc1ccc(-c2ccccc2)cc1)NC(=O)[C@@H](N)Cc1c[nH]c2ccccc12)C(=O)N[C@@H](CCCNC(=N)N)C(=O)N[C@@H](CCCNC(=N)N)C(N)=O [WBAARR-NH2] (H-W[Bip]AARR-NH2; N-terminus assumed)	>300 µg/mL	340.5 μM/ml	35 µg/mL (≈ 39.7 µM)	39.7 μM/ml		
Cc1c(C)c(S(=O)(=O)c2[nH]c3ccccc3c2C[C@H](N)C(=O)N[C@@H](Cc2ccc(-c3ccccc3)cc2)C(=O)N[C@@H](CCCNC(=N)N)C(=O)N[C@@H](CCCNC(=N)N)C(N)=O)c(C)c2c1OC(C)(C)CC2 [WBRR-NH2 Pmc+] (H-[Trp(2-Pmc)][Bip]RR-NH2; N-terminus assumed)	>100 µg/mL	99.5 μM/ml	5 to 10 µg/mL	5.0-9.9 μM/ml		
N=C(N)NCCC[C@H](NC(=O)[C@H](CCCNC(=N)N)NC(=O)[C@H](Cc1ccc(-c2ccccc2)cc1)NC(=O)[C@@H](N)Cc1c[nH]c2ccccc12)C(N)=O [WBRR-NH2] (H-W[Bip]RR-NH2; N-terminus assumed)	>100 µg/mL	135.3 μM/ml	20 µg/mL (≈ 27.1 µM)	27.1 μM/ml		
C[C@H](NC(=O)[C@H](C)NC(=O)[C@H](CCCNC(=N)N)NC(=O)[C@H](CCCNC(=N)N)NC(=O)[C@H](Cc1ccc(-c2ccccc2)cc1)NC(=O)[C@@H](N)Cc1c[nH]c2ccccc12)C(N)=O [WBRRAA-NH2] (H-W[Bip]RRAA-NH2; N-terminus assumed)	>300 µg/mL	340.5 μM/ml	75 µg/mL (≈ 85.1 µM)	85.1 μM/ml		
C[C@H](NC(=O)[C@H](C)NC(=O)[C@H](CCCNC(=N)N)NC(=O)[C@@H](N)Cc1c[nH]c2ccccc12)C(=O)N[C@@H](Cc1ccc(-c2ccccc2)cc1)C(=O)N[C@@H](CCCNC(=N)N)C(N)=O [WRAABR-NH2] (H-WRAA[Bip]R-NH2; N-terminus assumed)	150 µg/mL (≈ 170 µM)	170.2 μM/ml	35 µg/mL (≈ 39.7 µM)	39.7 μM/ml		
C[C@H](NC(=O)[C@H](C)NC(=O)[C@H](CCCNC(=N)N)NC(=O)[C@@H](N)Cc1c[nH]c2ccccc12)C(=O)N[C@@H](Cc1c[nH]c2ccccc12)C(=O)N[C@@H](CCCNC(=N)N)C(N)=O [WRAAWR-NH2] (H-WRAAWR-NH2; N-terminus assumed)	>200 µg/mL	237.0 μM/ml	>200 µg/mL	237.0 μM/ml		
Cc1c(C)c(S(=O)(=O)c2[nH]c3ccccc3c2C[C@H](N)C(=O)N[C@@H](CCCNC(=N)N)C(=O)N[C@@H](Cc2ccc(-c3ccccc3)cc2)C(=O)N[C@@H](CCCNC(=N)N)C(=O)N[C@@H](C)C(=O)N[C@@H](C)C(N)=O)c(C)c2c1OC(C)(C)CC2 [WRBRAA-NH2 Pmc+] (H-[Trp(2-Pmc)]R[Bip]RAA-NH2; N-terminus assumed)		13.1 μM/ml		4.4 μM/ml		
C[C@H](NC(=O)[C@H](C)NC(=O)[C@H](CCCNC(=N)N)NC(=O)[C@H](Cc1ccc(-c2ccccc2)cc1)NC(=O)[C@H](CCCNC(=N)N)NC(=O)[C@@H](N)Cc1c[nH]c2ccccc12)C(N)=O [WRBRAA-NH2] (H-WR[Bip]RAA-NH2; N-terminus assumed)	150 µg/mL (≈ 170 µM)	170.2 μM/ml	35 µg/mL (≈ 39.7 µM)	39.7 μM/ml		
N=C(N)NCCC[C@H](NC(=O)[C@@H](N)Cc1c[nH]c2ccccc12)C(=O)N[C@@H](Cc1c[nH]c2ccccc12)C(=O)OCc1ccccc1 [WRW-OBzl] (H-Trp-Arg-Trp-OBn)			5 µg/mL (≈ 7.85 µM)			
